What was measured:
[1] = tested on: MV4-11; assay: Antiproliferative activity against human MV4-11 assessed as combination index at 10 uM incubated for 72 hrs in presence of GI50 dose of Lapatinib by CellTiter-Glo luminescence assay; type: functional
[2] = tested on: HL-60; assay: Antiproliferative activity against human HL60 cells incubated for 72 hrs by CellTiter-Glo luminescence assay; type: functional; conditions: HL-60, 72 h
[3] = tested on: JeKo-1; assay: Antiproliferative activity against human JeKo1 assessed as combination index at 10 uM incubated for 72 hrs in presence of GI50 dose of GDC-0941 by CellTiter-Glo luminescence assay; type: functional
[4] = Antiproliferative activity against human MDA-MB-175 cells incubated for 72 hrs by CellTiter-Glo luminescence assay; type: functional
[5] = tested on: T47D; assay: Antiproliferative activity against human T47D cells incubated for 72 hrs by CellTiter-Glo luminescence assay; type: functional
[6] = tested on: T47D; assay: Antiproliferative activity against human T47D assessed as combination index at 20 uM incubated for 72 hrs in presence of GI50 dose of Lapatinib by CellTiter-Glo luminescence assay; type: functional
[7] = tested on: U-251; assay: Antiproliferative activity against human U251 cells incubated for 72 hrs by CellTiter-Glo luminescence assay; type: functional; conditions: U-251, 72 h
[8] = tested on: JeKo-1; assay: Antiproliferative activity against human JeKo1 cells incubated for 72 hrs by CellTiter-Glo luminescence assay; type: functional; conditions: JeKo-1, 72 h
[9] = tested on: PC-3; assay: Antiproliferative activity against human PC3 assessed as combination index at 20 uM incubated for 72 hrs in presence of GI50 dose of Bortezomib by CellTiter-Glo luminescence assay; type: functional
[10] = tested on: BT-549; assay: Antiproliferative activity against human BT549 cells incubated for 72 hrs by CellTiter-Glo luminescence assay; type: functional; conditions: BT-549, 72 h
[11] = tested on: SK-MEL19; assay: Antiproliferative activity against human SK-MEL-19 cells incubated for 72 hrs by CellTiter-Glo luminescence assay; type: functional; conditions: SK-MEL19, 72 h
[12] = tested on: A673; assay: Antiproliferative activity against human A673 cells incubated for 72 hrs by CellTiter-Glo luminescence assay; type: functional; conditions: A673, 72 h
[13] = tested on: MCF7; assay: Antiproliferative activity against human MCF7 cells incubated for 72 hrs by CellTiter-Glo luminescence assay; type: functional; conditions: MCF7, 72 h
[14] = tested on: SK-MEL19; assay: Antiproliferative activity against human SK-MEL-19 assessed as combination index at 5 uM incubated for 72 hrs in presence of GI50 dose of Palbociclib by CellTiter-Glo luminescence assay; type: functional
[15] = tested on: ASPC1; assay: Antiproliferative activity against human Aspc-1 cells incubated for 72 hrs by CellTiter-Glo luminescence assay; type: functional; conditions: ASPC1, 72 h
[16] = tested on: SK-ES1; assay: Antiproliferative activity against human SK-ES-1 cells incubated for 72 hrs by CellTiter-Glo luminescence assay; type: functional; conditions: SK-ES1, 72 h
[17] = tested on: DU-145; assay: Antiproliferative activity against human DU145 cells incubated for 72 hrs by CellTiter-Glo luminescence assay; type: functional; conditions: DU-145, 72 h
[18] = tested on: MIA PaCa-2; assay: Antiproliferative activity against human MIAPaCa2 cells incubated for 72 hrs by CellTiter-Glo luminescence assay; type: functional; conditions: MIA PaCa-2, 72 h
[19] = tested on: K562; assay: Antiproliferative activity against human K562 cells incubated for 72 hrs by CellTiter-Glo luminescence assay; type: functional; conditions: K562, 72 h
[20] = Clearance in iv dosed Balb/c mouse administered as single dose measured after 0.08 to 4 hrs by HPLC/MS analysis; type: ADME, organism-based; conditions: in vivo
[21] = tested on: CAKI-1; assay: Antiproliferative activity against human CAKI-1 cells incubated for 72 hrs by CellTiter-Glo luminescence assay; type: functional; conditions: CAKI-1, 72 h
[22] = tested on: Raji; assay: Antiproliferative activity against human Raji assessed as combination index at 20 uM incubated for 72 hrs in presence of GI50 dose of Palbociclib by CellTiter-Glo luminescence assay; type: functional
[23] = tested on: MV4-11; assay: Antiproliferative activity against human MV4-11 cells incubated for 72 hrs by CellTiter-Glo luminescence assay; type: functional; conditions: MV4-11, 72 h
[24] = tested on: A549; assay: Antiproliferative activity against human A549 cells incubated for 72 hrs by CellTiter-Glo luminescence assay; type: functional; conditions: A549, 72 h
[25] = tested on: U-87 MG; assay: Antiproliferative activity against human U87MG assessed as combination index at 20 uM incubated for 72 hrs in presence of GI50 dose of GDC-0941 by CellTiter-Glo luminescence assay; type: functional, U-87MG ATCC
[26] = tested on: MDA-MB-231; assay: Antiproliferative activity against human MDA-MB-231 assessed as combination index at 20 uM incubated for 72 hrs in presence of GI50 dose of Palbociclib by CellTiter-Glo luminescence assay; type: functional
[27] = tested on: PANC-1; assay: Antiproliferative activity against human PANC1 cells incubated for 72 hrs by CellTiter-Glo luminescence assay; type: functional; conditions: PANC-1, 72 h
[28] = tested on: SK-BR-3; assay: Antiproliferative activity against human SKBR3 cells incubated for 72 hrs by CellTiter-Glo luminescence assay; type: functional; conditions: SK-BR-3, 72 h
[29] = tested on: U-87 MG; assay: Antiproliferative activity against human U87MG assessed as combination index at 20 uM incubated for 72 hrs in presence of GI50 dose of Lapatinib by CellTiter-Glo luminescence assay; type: functional, U-87MG ATCC
[30] = tested on: MIA PaCa-2; assay: Antiproliferative activity against human MIAPaCa2 assessed as combination index at 20 uM incubated for 72 hrs in presence of GI50 dose of GDC-0941 by CellTiter-Glo luminescence assay; type: functional
[31] = tested on: MV4-11; assay: Antiproliferative activity against human MV4-11 assessed as combination index at 10 uM incubated for 72 hrs in presence of GI50 dose of GDC-0941 by CellTiter-Glo luminescence assay; type: functional
[32] = tested on: MDA-MB-231; assay: Antiproliferative activity against human MDA-MB-231 assessed as combination index at 20 uM incubated for 72 hrs in presence of GI50 dose of Lapatinib by CellTiter-Glo luminescence assay; type: functional
[33] = tested on: COLO 205; assay: Antiproliferative activity against human COLO205 cells incubated for 72 hrs by CellTiter-Glo luminescence assay; type: functional; conditions: COLO 205, 72 h
[34] = tested on: MDA-MB-231; assay: Antiproliferative activity against human MDA-MB-231 cells incubated for 72 hrs by CellTiter-Glo luminescence assay; type: functional; conditions: MDA-MB-231, 72 h
[35] = tested on: MV4-11; assay: Antiproliferative activity against human MV4-11 assessed as combination index at 10 uM incubated for 72 hrs in presence of GI50 dose of Taxotere by CellTiter-Glo luminescence assay; type: functional
[36] = tested on: Raji; assay: Antiproliferative activity against human Raji cells incubated for 72 hrs by CellTiter-Glo luminescence assay; type: functional
[37] = tested on: NCI-H522; assay: Antiproliferative activity against human NCI-H522 cells incubated for 72 hrs by CellTiter-Glo luminescence assay; type: functional; conditions: NCI-H522, 72 h
[38] = tested on: JeKo-1; assay: Antiproliferative activity against human JeKo1 assessed as combination index at 10 uM incubated for 72 hrs in presence of GI50 dose of Palbociclib by CellTiter-Glo luminescence assay; type: functional
[39] = tested on: SK-MEL19; assay: Antiproliferative activity against human SK-MEL-19 assessed as combination index at 5 uM incubated for 72 hrs in presence of GI50 dose of Taxotere by CellTiter-Glo luminescence assay; type: functional

`COCCN1CCOc2c1cnn1c(-c3ccc4cccc(NCC5CCNCC5)c4n3)nnc21` gave a CI [1] of 0.43, a GI50 [2] of 13.6 µM and a CI [3] of 0.295. For the same molecule, the GI50 [4] was 10.2 µM, the GI50 [5] was 10.8 µM and the CI [6] was 0.0001. For the same molecule, the GI50 [7] was 17.8 µM, the GI50 [8] was 7.3 µM and the CI [9] was 0.313. It also gave a GI50 [10] of 20.4 µM, a GI50 [11] of 1.48 µM and a GI50 [12] of 12.7 µM. For the same molecule, the GI50 [13] was 19.6 µM, the CI [14] was 0.351 and the GI50 [15] was 7.25 µM. The GI50 [16] was 7.38 µM, the GI50 [17] was 22.4 µM and the GI50 [18] was 17.4 µM. It also gave a GI50 [19] of 19.9 µM, a clearance [20] of 21 mL/min/kg and a GI50 [21] of 22.1 µM. The CI [22] was 0.52, the GI50 [23] was 6.46 µM and the GI50 [24] was 16.2 µM. For the same molecule, the CI [25] was 0.008, the CI [26] was 0.047 and the GI50 [27] was 25.4 µM. For the same molecule, the GI50 [28] was 21 µM, the CI [29] was 0.43 and the CI [30] was 0.075. The CI [31] was 0.334, the CI [32] was 0.116 and the GI50 [33] was 5.25 µM. For the same molecule, the GI50 [34] was 21.2 µM, the CI [35] was 0.526 and the GI50 [36] was 20 µM. For the same molecule, the GI50 [37] was 9.7 µM, the CI [38] was 0.108 and the CI [39] was 0.535.

— ChEMBL document CHEMBL4340512, “Discovery of novel triazolo[4,3-b]pyridazin-3-yl-quinoline derivatives as PIM inhibitors” (Eur J Med Chem, 2019)
